Results: ChEMBL document CHEMBL1154198, “Chemical genetics of Plasmodium falciparum” (Nature, 2010)

Experiments:
Plasmodium falciparum [1] = assay: ST_JUDE: Plasmodium falciparum K1 EC50 (uM) as measured by SYBR green dye; format: functional, organism-based
Plasmodium falciparum [2] = assay: ST_JUDE: Plasmodium falciparum 3D7 EC50 (uM) as measured by SYBR green dye; format: functional, organism-based

Row | Structure (SMILES) | EC50 (Plasmodium falciparum [1]) | EC50 (Plasmodium falciparum [2])
1 | CCOC(=O)C(=O)Oc1cc2oc(C(=O)OCC)c(-c3nc4ccccc4s3)c(=O)c2cc1CC | > 15 µM | > 15 µM
2 | O=C(COc1ccccc1)NC(c1ccc(Cl)cc1)c1cc(Cl)c2cccnc2c1O (stereo not drawn) | 1.68 µM | 1.83 µM
3 | O=C(Nc1cccc(F)c1)c1cc2ccccc2oc1=O | > 15 µM | > 15 µM
4 | CCCOc1ccc(-c2nonc2NC(=O)c2cccc(OC)c2)cc1OCCC | 1.21 µM | 1.16 µM
5 | CCOc1ccc(Nc2cc(C)nc3c(C)cc(C)cc23)cc1 | 6.67 µM | 3.73 µM
6 | Cc1cccnc1Nc1nc(-c2ccccn2)cs1 | 1.32 µM | 1.84 µM
7 | CC(=O)c1ccc(NC(=O)C2c3ccccc3C(=O)N(CC(C)C)C2c2cccs2)cc1 (stereo not drawn) | 0.682 µM | 0.571 µM
8 | CCC(=O)NC(c1ccco1)c1cc(Cl)c2cccnc2c1O (stereo not drawn) | 2.69 µM | > 15 µM
9 | CSc1nc(SC)c2c3c(sc2n1)CN(C)CC3 | 4.75 µM | 4.16 µM
10 | Cc1ccnc(NC(c2ccc(Cl)cc2Cl)c2ccc3cccnc3c2O)c1 (stereo not drawn) | 1.44 µM | 1.56 µM
11 | CC(C)C(=O)N1CCOc2c(cc(-c3csc4ccccc34)cc2OCCc2ccccn2)C1 | 4.48 µM | > 15 µM
12 | Oc1c(C(Nc2ccccn2)c2cccc(Oc3ccccc3)c2)ccc2cccnc12 (stereo not drawn) | 2.76 µM | 2.92 µM
13 | CC(C)(C)c1ccc(-c2cc(-c3cc(Cl)ccc3O)[nH]n2)cc1 | 1.34 µM | 4.23 µM
14 | CN(C)CCNc1nc(Cc2ccccc2)nc2sc3c(c12)CCCC3 | > 15 µM | > 15 µM
15 | CCCC(=O)NC(Nc1ccc(S(=O)(=O)Nc2cc(C)on2)cc1)(C(=O)OCC)C(F)(F)F (stereo not drawn) | 5.22 µM | 1.85 µM
16 | O=C(NCCN1CCOCC1)C(=O)Nc1ccc(F)cc1F | > 15 µM | > 15 µM
17 | CCOc1ccccc1CN1CCN(Cc2cc(Br)ccc2O)CC1 | 1.29 µM | 2.48 µM
18 | CN(C)CCN(C)C(=O)c1cccc(OC2CCN(Cc3ccccc3O)CC2)c1 | 5.14 µM | 4.8 µM
19 | C[n+]1ccccc1/C=C1\Sc2ccccc2N1CCO | 3.1 µM | 5.49 µM
20 | CCc1ccc(NC(=O)CN2N=NC3C(=O)N(c4ccc(Br)cc4)C(=O)C32)cc1 (stereo not drawn) | > 15 µM | > 15 µM
21 | CCOc1cc(/C=C(\C#N)c2nn(CCO)c(N)c2C#N)cc(I)c1OC | > 15 µM | > 15 µM
22 | CCOC(=O)c1sc(N2C(=O)C(O)=C(C(=O)c3ccc(Cl)cc3)C2c2ccccc2)nc1C (stereo not drawn) | > 15 µM | > 15 µM

Row | Structure (SMILES) | EC50 (Plasmodium falciparum [1]) | EC50 (Plasmodium falciparum [2])
23 | CCOC(=O)c1c(NC(=O)c2ccc(Cl)cc2Cl)sc(C)c1C | > 15 µM | > 15 µM
24 | CC1CC(C)CN(C(=O)c2ccc(Cl)cc2Cl)C1 (stereo not drawn) | > 15 µM | 1.32 µM
25 | CC(C)/N=C1\C(=O)c2ccccc2C(O)=C1Cl | 0.53 µM | 1.23 µM
26 | CCC(C(=O)NCc1ccccc1Cl)n1c2ccccc2c2nc(=O)cc(C)n21 (stereo not drawn) | > 15 µM | > 15 µM
27 | O=C(NCc1ccccc1)C1CCC(Cn2c(=O)c3ccccc3n(Cc3cccc(F)c3)c2=O)CC1 (stereo not drawn) | > 15 µM | > 15 µM
28 | COCCn1/c(=N/C(=O)COc2ccccc2)sc2cc(OC)ccc21 | > 15 µM | > 15 µM
29 | CN(Cc1cccc(OCCNC(=O)c2ccc3c(c2)OCO3)c1)Cc1cccc2cccnc12 | > 15 µM | > 15 µM
30 | CCOC(=O)c1c(N)n[nH]c1O | > 15 µM | > 15 µM
31 | COc1ccc(C(=O)NC(Nc2ccc(Cl)cc2)C(Cl)(Cl)Cl)cc1OC (stereo not drawn) | 1.86 µM | 1.53 µM
32 | CC(C)(C)CNc1cc(N2CCN(C(=O)c3cccs3)CC2)ccc1[N+](=O)[O-] | 4.76 µM | 4.53 µM
33 | O=C(Nc1ccc2oc(-c3ccccc3)nc2c1)C(Cl)(Cl)Cl | 4.52 µM | > 15 µM
34 | Cc1ccc(NC(=O)Cn2c(C)c(C=O)c3ccccc32)cc1Cl | 4.63 µM | > 15 µM
35 | CCc1ccc(Oc2c(C(F)(F)F)oc3c(CN4CCCCC4)c(O)ccc3c2=O)cc1 | 0.558 µM | 1.61 µM
36 | Cc1ccc(NC(=O)c2csc3c2CCCCC3)c(C)c1 | > 15 µM | 1.77 µM
37 | COc1cccc(C(=O)NC(c2ccc(C)cc2)c2cc(Cl)c3cccnc3c2O)c1 (stereo not drawn) | > 15 µM | > 15 µM
38 | CCCN1CCC(NC(=S)Nc2ccc([N+](=O)[O-])cc2)CC1 | > 15 µM | > 15 µM
39 | COC(=O)CNC(c1ccccc1)c1cc(Br)ccc1NC(=O)c1ccccc1 (stereo not drawn) | 6.06 µM | 6.83 µM
40 | COc1cccc(NC(=O)Cn2c3ccccc3c(=O)c3cc(Cl)ccc32)c1 | 5.45 µM | > 15 µM
41 | O=[N+]([O-])c1ccc2ncnc(Nc3cc(Cl)ccc3O)c2c1 | 1.75 µM | 1.62 µM
42 | COc1cc(/C=C(\C#N)c2nc3ccccc3[nH]2)cc(Br)c1OCC#N | > 15 µM | > 15 µM
43 | CNC(=O)C(=O)N1CCC2(CC1)OCCN2S(=O)(=O)c1ccc(C)cc1 | > 15 µM | > 15 µM
44 | CCCSc1nnc(Cn2c(=O)sc3ccccc32)n1C | > 15 µM | > 15 µM
